Reference: ChEMBL document CHEMBL4359816, “Discovery and Optimization of Quinolinone Derivatives as Potent, Selective, and Orally Bioavailable Mutant Isocitrate Dehydrogenase 1 (mIDH1) Inhibitors” (J Med Chem, 2019)
pIC50: −log10 of the molar value. Converted amounts (≈) assume the structure as drawn. Blank lines part the entries; values can stand above or below the compound they belong to.

Columns and labels:
[1] = Protein binding in dog plasma; format: ADME, cell-free, Canis lupus familiaris; conditions: read-out: PPB (converted)
[2] = biological target: Isocitrate dehydrogenase [NADP] cytoplasmic (Homo sapiens, UniProt O75874, R132L); assay: Inhibition of human Myc-DDK-tagged IDH1 R132L mutant expressed in human U87MG cells assessed as reduction in 2-HG levels after 24 hrs by RapidFire high-throughput mass spectrometry assay; format: cell-based
[3] = Oral bioavailability in rat at 5 mg/kg; format: ADME, organism-based; conditions: in vivo
[4] = Protein binding in rat plasma; format: ADME, cell-free; conditions: read-out: PPB (converted)
[5] = Octanol/aqueous buffer partition coefficient, log D of the compound at pH 7.4; format: physicochemical
[6] = Permeability of the compound by PAMPA; format: ADME; conditions: read-out: permeability
[7] = Clearance in rat at 1 mg/kg, iv or 5 mg/kg, po; format: ADME, organism-based; conditions: in vivo
[8] = Half-life in dog at 0.5 mg/kg, iv; format: ADME, organism-based, Canis lupus familiaris; conditions: in vivo
[9] = Clearance in dog at 0.5 mg/kg, iv; format: ADME, organism-based, Canis lupus familiaris; conditions: in vivo
[10] = Apparent permeability of the compound across apical side to basolateral side in human Caco2 cells; format: ADME, cell-based; conditions: Caco-2
[11] = Intrinsic clearance in human hepatocytes; format: ADME, cell-based, Hepatocyte; conditions: read-out: CLH
[12] = Total AUC (infinity) in dog at 0.5 mg/kg, iv; format: ADME, organism-based, Canis lupus familiaris; design: dose 0.5 mg/kg, time AUCmax, route intravenous; conditions: in vivo
[13] = biological target: Isocitrate dehydrogenase [NADP] cytoplasmic (Homo sapiens, UniProt O75874, R132S); assay: Inhibition of human Myc-DDK-tagged IDH1 R132S mutant expressed in human U87MG cells assessed as reduction in 2-HG levels after 24 hrs by RapidFire high-throughput mass spectrometry assay; format: cell-based
[14] = fAUC (infinity) in rat at 1 mg/kg, iv or 5 mg/kg, po; format: ADME, organism-based; conditions: in vivo
[15] = Half-life in human hepatocytes; format: ADME, cell-based, Hepatocyte
[16] = Protein binding in mouse plasma; format: ADME, cell-free; conditions: read-out: PPB (converted)
[17] = Metabolic stability in human liver microsomes assessed as compound remaining after 30 mins; format: ADME, Microsome; conditions: read-out: Stability
[18] = Protein binding in human plasma; format: ADME, cell-free; conditions: read-out: PPB (converted)
[19] = fAUC (infinity) in mouse at 1 mg/kg, iv or 5 mg/kg, po; format: ADME, organism-based; conditions: in vivo
[20] = Kinetic solubility of the compound; format: physicochemical; conditions: read-out: Kinetic_solubility
[21] = Metabolic stability in rat liver microsomes assessed as compound remaining after 30 mins; format: ADME, Microsome; conditions: read-out: Stability
[22] = Efflux ratio of apparent permeability from basolateral side to apical side over apical side to basolateral side in human Caco2 cells; format: ADME, cell-based; conditions: Caco-2
[23] = Cmax in rat at 1 mg/kg, iv or 5 mg/kg, po; format: ADME, organism-based; conditions: in vivo
[24] = biological target: T1, Isocitrate dehydrogenase [NADP] cytoplasmic (Homo sapiens, UniProt O75874, R132C); assay: Inhibition of human Myc-DDK-tagged IDH1 R132C mutant expressed in human U87MG cells assessed as reduction in 2-HG levels after 24 hrs by RapidFire high-throughput mass spectrometry assay; format: cell-based
[25] = Total AUC (infinity) in rat at 1 mg/kg, iv or 5 mg/kg, po; format: ADME, organism-based; conditions: in vivo
[26] = Oral bioavailability in mouse at 5 mg/kg; format: ADME, organism-based; conditions: in vivo
[27] = biological target: Isocitrate dehydrogenase [NADP] cytoplasmic (Homo sapiens, UniProt O75874, R132G); assay: Inhibition of human Myc-DDK-tagged IDH1 R132G mutant expressed in human U87MG cells assessed as reduction in 2-HG levels after 24 hrs by RapidFire high-throughput mass spectrometry assay; format: cell-based
[28] = biological target: T1, Isocitrate dehydrogenase [NADP] cytoplasmic; assay: Inhibition of human Myc-DDK-tagged IDH1 R132C mutant assessed as reduction in NADPH consumption pre-incubated for 15 mins followed by alpha-ketoglutarate substrate and NADPH addition after 45 mins by diaphorase and resazurin dye based assay
[29] = biological target: T1, Isocitrate dehydrogenase [NADP] cytoplasmic; assay: Inhibition of IDH1 R132C mutant in human HCT116 cells assessed as reduction in 2-HG levels after 24 hrs by RapidFire high-throughput mass spectrometry assay; format: cell-based
[30] = Total Cmax in mouse at 1 mg/kg, iv or 5 mg/kg, po; format: ADME, organism-based; conditions: in vivo
[31] = Clearance in mouse at 1 mg/kg, iv or 5 mg/kg, po; format: ADME, organism-based; conditions: in vivo
[32] = Apparent permeability of the compound across basolateral side to apical side in human Caco2 cells; format: ADME, cell-based; conditions: Caco-2
[33] = fAUC (infinity) in dog at 0.5 mg/kg, iv; format: ADME, organism-based, Canis lupus familiaris; conditions: in vivo
[34] = Total AUC (infinity) in mouse at 1 mg/kg, iv or 5 mg/kg, po; format: ADME, organism-based; conditions: in vivo
[35] = Half-life in rat at 1 mg/kg, iv or 5 mg/kg, po; format: ADME, organism-based; conditions: in vivo
[36] = Half-life in mouse at 1 mg/kg, iv or 5 mg/kg, po; format: ADME, organism-based; conditions: in vivo
[37] = Metabolic stability in mouse liver microsomes assessed as compound remaining after 30 mins; format: ADME, Microsome; conditions: read-out: Stability
[38] = AUC (0 to 8 hrs) in BALB/c mouse at 5 mg/kg, po measured up to 24 hrs; format: ADME, organism-based; design: dose 5 mg/kg, time < 8 hr, route oral; conditions: in vivo
[39] = biological target: Isocitrate dehydrogenase [NADP] cytoplasmic (Homo sapiens, UniProt O75874); assay: Inhibition of wild-type IDH1 (unknown origin) by NADPH fluorescence based assay
[40] = Total plasma concentration in BALB/c mouse at 5 mg/kg, po at 4 hrs; format: ADME, organism-based
[41] = Total Cmax in BALB/c mouse at 5 mg/kg, po after 1 hr; format: ADME, organism-based; design: dose 5 mg/kg, route oral; conditions: in vivo
[42] = Half-life in BALB/c mouse at 5 mg/kg, po measured up to 24 hrs; format: ADME, organism-based; conditions: in vivo
[43] = species on record: Homo sapiens; format: cell-based
[44] = test system: MDR1 (P-gp); assay: Efflux ratio of apparent permeability from basolateral side to apical side over apical side to basolateral side in MDCK cells harboring MDR1 (unknown origin) at 10 uM incubated for 2 hrs by LC-MS/MS analysis; format: ADME, cell-based, Canis lupus familiaris; conditions: dog

T1 sequence (O75874 2-414 R132C limits assumed): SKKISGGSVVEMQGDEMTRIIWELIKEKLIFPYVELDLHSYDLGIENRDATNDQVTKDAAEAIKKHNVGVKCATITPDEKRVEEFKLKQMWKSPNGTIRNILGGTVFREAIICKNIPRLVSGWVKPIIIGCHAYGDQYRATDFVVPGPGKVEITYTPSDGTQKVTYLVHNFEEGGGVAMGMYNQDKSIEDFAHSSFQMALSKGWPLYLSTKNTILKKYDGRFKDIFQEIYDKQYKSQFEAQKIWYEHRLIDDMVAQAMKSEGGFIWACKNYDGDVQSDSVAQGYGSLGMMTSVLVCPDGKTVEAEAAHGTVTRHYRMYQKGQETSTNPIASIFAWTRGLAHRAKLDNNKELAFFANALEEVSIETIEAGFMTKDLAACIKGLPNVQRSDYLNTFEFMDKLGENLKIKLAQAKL
Sequence of Isocitrate dehydrogenase [NADP] cytoplasmic (Homo sapiens, UniProt O75874) (O75874 whole entry): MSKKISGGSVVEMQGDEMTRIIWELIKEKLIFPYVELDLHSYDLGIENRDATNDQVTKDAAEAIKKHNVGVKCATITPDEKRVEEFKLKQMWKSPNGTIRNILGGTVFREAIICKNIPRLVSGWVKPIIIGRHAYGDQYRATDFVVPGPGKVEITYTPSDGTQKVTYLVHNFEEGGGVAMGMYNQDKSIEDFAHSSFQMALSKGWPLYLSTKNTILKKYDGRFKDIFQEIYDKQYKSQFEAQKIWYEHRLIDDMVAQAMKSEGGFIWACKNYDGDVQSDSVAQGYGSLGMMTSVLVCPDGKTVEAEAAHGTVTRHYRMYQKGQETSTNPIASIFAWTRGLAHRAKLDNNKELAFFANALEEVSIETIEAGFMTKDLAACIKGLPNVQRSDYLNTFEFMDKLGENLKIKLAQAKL
Sequence of Isocitrate dehydrogenase [NADP] cytoplasmic (Homo sapiens, UniProt O75874, R132S) (O75874 2-414 R132S limits assumed): as the sequence (O75874 2-414 R132C limits assumed) above, with C131S counted along it
Sequence of Isocitrate dehydrogenase [NADP] cytoplasmic (Homo sapiens, UniProt O75874, R132G) (O75874 2-414 R132G limits assumed): as the sequence (O75874 2-414 R132C limits assumed) above, with C131G counted along it
Sequence of Isocitrate dehydrogenase [NADP] cytoplasmic (Homo sapiens, UniProt O75874, R132L) (O75874 2-414 R132L limits assumed): as the sequence (O75874 2-414 R132C limits assumed) above, with C131L counted along it

Structure (SMILES): COc1cc2[nH]c(=O)c([C@H](C)Nc3ncc(C#N)c(OC)n3)cc2cc1Cl
fraction unbound [1]: 0.0228 | pIC50 [2]: 8.30 | bioavailability [3]: 75% | fraction unbound [4]: 0.0045 | logD [5]: 2.74 | Papp [6]: 12.7 ×10⁻⁶ cm/s | clearance [7]: 16.4 mL/min/kg | half-life [8]: 6.2 h | clearance [9]: 4.3 mL/min/kg | Papp A→B [10]: 5.73 ×10⁻⁶ cm/s | CLint scaled [11]: 19.1 mL/min/kg | AUC(0-inf) [12]: 5.8 µM·h | pIC50 [13]: 6.89 | fAUC [14]: 0.043 µM·h | half-life [15]: 3.07 h | fraction unbound [16]: 0.0083 | remaining at 0.5 h [17]: 97% | fraction unbound [18]: 0.0144 | fAUC [19]: 0.178 µM·h | solubility kinetic [20]: 5.7 µM (≈ 2.2 µg/mL) | remaining at 0.5 h [21]: 88% | efflux ratio [22]: 1.65 | Cmax [23]: 1900 nM | pIC50 [24]: 8.40 | AUC(0-inf) [25]: 10.7 µM·h | bioavailability [26]: 85% | pIC50 [27]: 8.52 | pIC50 [28]: 7.44 | pIC50 [29]: 7.40 | Cmax [30]: 5200 nM | clearance [31]: 8.5 mL/min/kg | Papp B→A [32]: 9.47 ×10⁻⁶ cm/s | fAUC [33]: 0.132 µM·h | AUC(0-inf) [34]: 21.5 µM·h | half-life [35]: 2.6 h | half-life [36]: 3.5 h

Structure (SMILES): COc1cc(NCc2cc3cc(Cl)ccc3[nH]c2=O)ccc1C#N
AUC(0-t) at 8 h [38]: 2.45 µM·h | pIC50 [39]: 4.00 | remaining at 0.5 h [37]: 42% | concentration at 4 h [40]: 100 nM | Cmax [41]: 1060 nM | half-life [42]: 1.27 h | Ratio IC50 [43]: 4 | remaining at 0.5 h [17]: 81% | solubility kinetic [20]: 0.43 µM (≈ 0.146 µg/mL) | pIC50 [24]: 5.90 | pIC50 [28]: 5.65 | pIC50 [29]: 5.72

Structure (SMILES): COc1nc(N[C@@H](C)c2cc3cc(Cl)c(OCC4CC4)cc3[nH]c2=O)ncc1C#N
remaining at 0.5 h [17]: 100% | solubility kinetic [20]: < 0.1 µM | remaining at 0.5 h [21]: 100% | pIC50 [28]: 7.28 | pIC50 [29]: 7.27

Structure (SMILES): COc1nc(N[C@@H](C)c2cc3cc(Cl)c(C4CC4)cc3[nH]c2=O)ncc1C#N
remaining at 0.5 h [17]: 93% | solubility kinetic [20]: 0.4 µM (≈ 0.158 µg/mL) | remaining at 0.5 h [21]: 68% | pIC50 [28]: 6.52 | pIC50 [29]: 6.71

Structure (SMILES): N#Cc1ccnc(N2C(=O)CC[C@H]2C(=O)N(c2cncc(F)c2)[C@H](C(=O)NC2CC(F)(F)C2)c2ccccc2Cl)c1 [IVOSIDENIB]
efflux ratio at 2 h, 10 µM [44]: > 350

Structure (SMILES): COc1nc(N[C@@H](C)c2cc3cc(Cl)c(OCc4ccccn4)cc3[nH]c2=O)ncc1C#N
remaining at 0.5 h [17]: 97% | solubility kinetic [20]: 1.5 µM (≈ 0.694 µg/mL) | remaining at 0.5 h [21]: 77% | pIC50 [28]: 7.37 | pIC50 [29]: 7.66

Next, values leading:

remaining at 0.5 h [37]: 94% | logD [5]: 3.74 | remaining at 0.5 h [17]: 98% | solubility kinetic [20]: 5.7 µM (≈ 1.93 µg/mL) | pIC50 [28]: 6.74 | pIC50 [29]: 6.57
Structure (SMILES): Cc1nc(N[C@@H](C)c2cc3cc(Cl)ccc3[nH]c2=O)ccc1C#N

remaining at 0.5 h [37]: 60% | logD [5]: 2.5 | remaining at 0.5 h [17]: 100% | solubility kinetic [20]: 4.8 µM (≈ 1.7 µg/mL) | pIC50 [28]: 5.99 | pIC50 [29]: 6.47
Structure (SMILES): COc1nc(C#N)ccc1N[C@@H](C)c1cc2cc(Cl)ccc2[nH]c1=O

AUC(0-t) at 8 h [38]: 2.66 µM·h | pIC50 [39]: 4.12 | remaining at 0.5 h [37]: 69% | Cmax [41]: 480 nM | half-life [42]: 3.57 h | remaining at 0.5 h [17]: 84% | solubility kinetic [20]: 0.64 µM (≈ 0.208 µg/mL) | pIC50 [24]: 6.59 | pIC50 [28]: 6.09 | pIC50 [29]: 5.49
Structure (SMILES): Cc1nc(NCc2cc3cc(Cl)ccc3[nH]c2=O)ccc1C#N

remaining at 0.5 h [17]: 89% | solubility kinetic [20]: 1.2 µM (≈ 0.449 µg/mL) | remaining at 0.5 h [21]: 100% | pIC50 [28]: 6.74 | pIC50 [29]: 6.59
Structure (SMILES): COc1nc(N[C@@H](C)c2cc3cc(Cl)c(F)cc3[nH]c2=O)ncc1C#N

remaining at 0.5 h [37]: 100% | logD [5]: 3.38 | remaining at 0.5 h [17]: 100% | solubility kinetic [20]: 15.6 µM (≈ 5.53 µg/mL)
Structure (SMILES): COc1cc(N[C@@H](C)c2cc3cc(Cl)ccc3[nH]c2=O)ncc1C#N

logD [5]: 3.47 | remaining at 0.5 h [17]: 82% | solubility kinetic [20]: 0.08 µM (≈ 0.0284 µg/mL) | pIC50 [28]: 6.72 | pIC50 [29]: 7.04
Structure (SMILES): COc1nc(N[C@@H](C)c2cc3cc(Cl)ccc3[nH]c2=O)ccc1C#N

remaining at 0.5 h [37]: 71% | logD [5]: 3.67 | remaining at 0.5 h [17]: 75% | solubility kinetic [20]: 4.1 µM (≈ 1.45 µg/mL) | pIC50 [28]: 6.95 | pIC50 [29]: 6.67
Structure (SMILES): COc1cc(N[C@@H](C)c2cc3cc(Cl)ccc3[nH]c2=O)ccc1C#N
